# In US10167285B2, “Small-molecule HSP90 inhibitors” (Memorial Sloan Kettering Cancer Center, priority 2005, dated 2019):
# How the values were obtained:
# [1] = tested on: SKBr3 breast cancer cells; experiment: Growth inhibition, sulforhodamine B assay; format: cell-based, human; settings: Homo sapiens, SK-BR-3, 72 h, average of 3 measurements
# Method: Cell culture. The human breast cancer cell lines SKBr3 and MDA-MB-468 were a gift from Dr. Neal Rosen (MSKCC). Cells were maintained in 1:1 mixture of DME:F12 supplemented with 2 mM glutamine, 50 units/mL penicillin, 50 […] and 10% heat inactivated fetal bovine serum (Gemini Bioproducts #100-10b) and incubated at 37° C., 5% CO2. Growth assays. Growth inhibition studies were performed using the sulforhodamine B assay as previously described.^29 In summary, experimental cultures were plated in microtiter plates (Nunc #167008). One column of wells was left without cells to serve as the blank control. Cells were allowed to attach overnight. The following day, growth medium having either drug or DMSO at twice the desired initial concentration was added to the plate in triplicate and was serially diluted at a 1:1 ratio in the microtiter plate. After 72 h of growth, the cell number in treated versus control wells was estimated after treatment with 50% trichloroacetic acid and staining with 0.4% sulforhodamine B in 1% acetic acid. […] Normal human renal proximal tubular epithelial (RPTEC) cells were purchased pre-seeded in 96-well plates (Clonetics, CC-3190). Upon receipt, cells were placed in a humidified incubator at 37° C., 5% CO2 and allowed to equilibrate for 3 h. Media was removed by suction and replaced with fresh media provided by the manufacturer. Cells were then treated with either drugs or DMSO for 72 h and the IC50 values were determined as described above.
# H69AR = experiment: Growth over 96 h in adriamycin-resistant SCLC cells; format: cell-based; settings: resistant to adriamycin
# Method: (§1) Growth over 96 h was assessed.
# Hsp90 SKBr3 = experiment: Hsp90 competition assay, SKBr3 cell lysate; settings: read-out: EC50 Hsp90 SKBr3
# Method: Hsp90 competition assay. Fluorescence polarization measurements were performed on an Analyst AD instrument (Molecular Devices, Sunnyvale, Calif.). […] The assay buffer (HFB) contained 20 mM HEPES (K) pH 7.3, 50 mM KCl, 5 mM MgCl2, 20 mM Na2MoO4, 0.01% NP40. Before each use, 0.1 mg/mL bovine gamma globulin (BGG) (Panvera Corporation, Madison, Wis.) and 2 mM DTT (Fisher Biotech, Fair Lawn, N.J.) were freshly added. GM-BODIPY was synthesized as previously reported^23a and was dissolved in DMSO to form 10 μM solutions. Recombinant Hsp90α was purchased from Stressgen Bioreagents (cat. No. SPP-776), (Victoria, Canada). Cell lysates were prepared rupturing cellular membranes by freezing at −70° C. and dissolving the cellular extract in HFB with added protease and phosphotase inhibitors. […] Saturation curves were recorded in which GM-BODIPY (5 nM) was treated with increasing amounts of cellular lysates.
# MDA-MB-468 cells = experiment: Anti-mitotic assay (Tg-3 microtiter immunoassay); format: cell-based, human; settings: 24 h, concentration dependent increase in Tg-3 luminescence
# Method: Anti-mitotic assay. Black, clear-bottom microtiter 96-well plates (Corning Costar #3603) were used to accommodate experimental cultures. MDA-MB-468 cells were seeded in each well at 8,000 cells per well in growth medium (100 μL), and allowed to attach overnight at 37° C. and 5% CO2. Growth medium (100 μL) with drug or vehicle (DMSO) was gently added to the wells, and the plates were incubated at 37° C. and 5% CO2 for 24 h. Wells were washed with ice-cold TBST (2×200 μL). A house vacuum source attached to an eight-channel aspirator was used to remove the liquid from the 96-well plates. Ice-cold methanol (100 μL) was added to each well, and the plate was placed at 4° C. for 5 min. Methanol was removed by suction and plates were washed with ice-cold TBST (2×200 μL). Plates were further incubated with SuperBlock® blocking buffer (Pierce #37535) (200 μL) for 2 h at RT. The Tg-3 antibody (gift of Dr. Davies, Albert Einstein College of Medicine) diluted 1:200 in SuperBlock® was placed in each well (100 μL) except the control column that was treated with control antibody (Mouse IgM, NeoMarkers, NC-1030-P). After 72 h, wells were washed with ice-cold TBST (2×200 μL). […] Un-reacted antibody was removed by washing the plates with ice-cold TBST (3×200 μL) for 5 min on a shaker. The ECLTM Western Blotting Detection Reagents 1 and 2 in 1:1 mix (100 μL) was placed in each well and the plates were read immediately in an Analyst AD plate reader (Molecular Devices). Luminescence readings were imported into SOFTmax PROR 4.3.1. Anti-mitotic activity was defined as a concentration dependent increase in luminescence readings in compound-treated wells as compared to DMSO only treated wells.
# Hsp90 heart = experiment: Hsp90 competition assay, heart homogenate
# Method: (§3) Hsp90 competition assay. Fluorescence polarization measurements were performed on an Analyst AD instrument (Molecular Devices, Sunnyvale, Calif.). […] The assay buffer (HFB) contained 20 mM HEPES (K) pH 7.3, 50 mM KCl, 5 mM MgCl2, 20 mM Na2MoO4, 0.01% NP40. Before each use, 0.1 mg/mL bovine gamma globulin (BGG) (Panvera Corporation, Madison, Wis.) and 2 mM DTT (Fisher Biotech, Fair Lawn, N.J.) were freshly added. […] Cell lysates were prepared rupturing cellular membranes by freezing at −70° C. and dissolving the cellular extract in HFB with added protease and phosphotase inhibitors. Organs were harvested from a healthy mouse and homogenized in HFB. Saturation curves were recorded in which GM-BODIPY (5 nM) was treated with increasing amounts of cellular lysates.
# [2] = tested on: Hsp90 client proteins (Raf-1, Akt), PARP cleavage; experiment: Pharmacodynamics in small cell lung tumors; format: in vivo
# SKI-Chen = experiment: Growth over 96 h in therapy-resistant SCLC cells; format: cell-based; settings: from a patient who failed every conventional therapy
# Method: as §1
# Solubility in PBS = format: physicochemical; settings: aqueous buffer, acid addition salt form
# Method: as §1
# Hsp90 lung = experiment: Hsp90 competition assay, lung homogenate
# Method: as §3
# small cell lung tumors = experiment: Tumor growth inhibition in small cell lung cancer model; format: in vivo
# U251 glioma cells = experiment: Clonogenic survival assay, radiosensitization; format: cell-based, human
# Method: (§2) Colony forming efficiency was determined 10-12 days later and survival curves generated after normalizing for cell killing by Compound 9 alone. The results are summarized in FIG. 11A (Compound 9) and B (Compound 8).
# U87 glioma cells = experiment: Clonogenic survival assay, radiosensitization; format: cell-based, human
# Method: as §2
# [3] = Blood brain barrier penetration
# [4] = Plasma and tumor levels in small cell lung cancer model; settings: tumor
compound,measurement,setting,value
"CC(C)NCCCn1c(Sc2cc3c(cc2I)OCO3)nc2c(N)ncnc21 [Example 9, 8-(6-Iodo-benzo[1,3]dioxol-5-ylsulfanyl)-9-(3-isopropylamino-propyl)adenine]",IC50,[1],0.05 ± 0.005 µM
same,activity in resistant SCLC cell line,H69AR,retains its activity
same,EC50,Hsp90 SKBr3,0.0504 ± 0.004 µM
same,Anti-mitotic,MDA-MB-468 cells,Yes
same,Heart/SKBr3,Hsp90 heart; ratio of EC50 Hsp90 values,140
same,EC50,"Hsp90 heart; read-out: EC50 Hsp90 heart, normal tissue",6.9 ± 0.15 µM
same,apoptosis of the tumor (PARP cleavage),[2]; FIG. 9C,induces significant apoptosis
same,Raf-1 and Akt in tumor,[2]; one administered dose,efficiently degraded or inactivated
same,activity in resistant SCLC cell line,SKI-Chen,retains its activity
same,solubility,Solubility in PBS,> 5 mM
same,Lung/SKBr3,Hsp90 lung; ratio of EC50 Hsp90 values,48
same,EC50,"Hsp90 lung; read-out: EC50 Hsp90 lung, normal tissue",2.4 ± 0.24 µM
same,tumor growth,"small cell lung tumors; comparable to 17AAG, FIG. 9D",efficiently inhibited the growth
same,toxicity to the host,small cell lung tumors; in vivo,without toxicity
same,surviving fraction after compound treatment only,U251 glioma cells; U251 cells,0.86
same,dose enhancement factors,"U251 glioma cells; range across U251 and U87, 16 h exposure before X rays",1.4-1.6
same,surviving fraction after compound treatment only,U87 glioma cells,0.68
same,crossing of the blood brain barrier,[3],ability to cross the blood brain barrier
same,retention in tumors at pharmacologic doses,[4],more than 36 h
